Experimental data taken from ChEMBL document CHEMBL1649133, “In vitro comparison of the efficacies of natamycin and silver nitrate against ocular fungi” (2009).
In brackets after ≈: the same amount, converted by molar mass.

Tests used:
Assay type in all cases: functional
[1] = test system: Fusarium verticillioides; assay: Antifungal activity against 0.4x10'4 to 5x10^4 CFU/ml Fusarium moniliforme after 48 hrs by CLSI M38-A broth microdilution method
[2] = test system: Aspergillus niger; assay: Antifungal activity against 0.4x10'4 to 5x10^4 CFU/ml Aspergillus niger after 48 hrs by CLSI M38-A broth microdilution method
[3] = test system: Fusarium sp.; assay: Antifungal activity against 0.4x10'4 to 5x10^4 CFU/ml Fusarium sp. after 48 hrs by CLSI M38-A broth microdilution method
[4] = test system: Aspergillus fumigatus; assay: Antifungal activity against 0.4x10'4 to 5x10^4 CFU/ml Aspergillus fumigatus after 48 hrs by CLSI M38-A broth microdilution method
[5] = test system: Fusarium poae; assay: Antifungal activity against 0.4x10'4 to 5x10^4 CFU/ml Fusarium poae after 48 hrs by CLSI M38-A broth microdilution method
[6] = test system: Aspergillus sp.; assay: Antifungal activity against 0.4x10'4 to 5x10^4 CFU/ml Aspergillus sp. after 48 hrs by CLSI M38-A broth microdilution method
[7] = test system: Fusarium oxysporum; assay: Antifungal activity against 0.4x10'4 to 5x10^4 CFU/ml Fusarium oxysporum after 48 hrs by CLSI M38-A broth microdilution method
[8] = test system: Fusarium solani; assay: Antifungal activity against 0.4x10'4 to 5x10^4 CFU/ml Fusarium solani after 48 hrs by CLSI M38-A broth microdilution method
[9] = test system: Fusarium avenaceum; assay: Antifungal activity against 0.4x10'4 to 5x10^4 CFU/ml Fusarium avenaceum after 48 hrs by CLSI M38-A broth microdilution method
[10] = test system: Aspergillus flavus; assay: Antifungal activity against 0.4x10'4 to 5x10^4 CFU/ml Aspergillus flavus after 48 hrs by CLSI M38-A broth microdilution method
[11] = test system: Aspergillus oryzae; assay: Antifungal activity against 0.4x10'4 to 5x10^4 CFU/ml Aspergillus oryzae after 48 hrs by CLSI M38-A broth microdilution method
[12] = test system: Aspergillus versicolor; assay: Antifungal activity against 0.4x10'4 to 5x10^4 CFU/ml Aspergillus versicolor after 48 hrs by CLSI M38-A broth microdilution method

SMILES: C[C@@H]1C/C=C/C=C/C=C/C=C/[C@H](O[C@@H]2O[C@H](C)[C@@H](O)[C@H](N)[C@@H]2O)C[C@@H]2O[C@](O)(C[C@@H](O)C[C@H]3O[C@@H]3/C=C/C(=O)O1)C[C@H](O)[C@H]2C(=O)O [NATAMYCIN]
- MIC [1]: 4 µg/mL (≈ 6.01 µM)
- MIC50 [1]: 4 µg/mL (≈ 6.01 µM)
- MIC90 [1]: 8 µg/mL (≈ 12 µM)
- MIC [2]: 0.25 µg/mL (≈ 0.376 µM)
- MIC [3]: 4 µg/mL (≈ 6.01 µM)
- MIC50 [3]: 4 µg/mL (≈ 6.01 µM)
- MIC90 [3]: 8 µg/mL (≈ 12 µM)
- MIC [4]: 4 µg/mL (≈ 6.01 µM)
- MIC50 [4]: 4 µg/mL (≈ 6.01 µM)
- MIC90 [4]: 4 µg/mL (≈ 6.01 µM)
- MIC [5]: 4 µg/mL (≈ 6.01 µM)
- MIC50 [6]: 32 µg/mL (≈ 48.1 µM)
- MIC90 [6]: 32 µg/mL (≈ 48.1 µM)
- MIC [7]: 4 µg/mL (≈ 6.01 µM)
- MIC [8]: 4 µg/mL (≈ 6.01 µM)
- MIC50 [8]: 4 µg/mL (≈ 6.01 µM)
- MIC90 [8]: 8 µg/mL (≈ 12 µM)
- MIC50 [9]: 8 µg/mL (≈ 12 µM)
- MIC90 [9]: 8 µg/mL (≈ 12 µM)
- MIC50 [10]: 32 µg/mL (≈ 48.1 µM)
- MIC90 [10]: 32 µg/mL (≈ 48.1 µM)
- MIC50 [11]: 32 µg/mL (≈ 48.1 µM)
- MIC90 [11]: 32 µg/mL (≈ 48.1 µM)
- MIC50 [12]: 8 µg/mL (≈ 12 µM)
- MIC90 [12]: 32 µg/mL (≈ 48.1 µM)
